Results published in PubChem BioAssay AID1918938 (Molecular Pharmacology Branch, DTP, NCI, 2023).

System: 556581-035-R-J1-PDC complex spheroid viability
Test: Anticancer human tumor 556581-035-R-J1-PDC patient-derived ovarian carcinoma cell line growth inhibition
Conditions: for IC50: curve of first compound; for viability, T/C: stronger effect = lower value
Outline: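 Complex spheroids of tumor cells with HUVEC and human MSCs, exposed to iadademstat combined with other agents. Each agent tested in half-log steps from near clinical Cmax (else 10 microM top), DMSO ≤0.25%.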

[1] = second compound 0.1 µM, first compound 0.00949 µM
[2] = second compound 0.1 µM, first compound 0.03 µM
[3] = second compound 0.1 µM, first compound 0.0949 µM
[4] = second compound 0.1 µM, first compound 0.3 µM
[5] = second compound 0.1 µM, first compound 0.949 µM
[6] = second compound 0.1 µM, first compound 3 µM
[7] = second compound 0.316 µM, first compound 0.00949 µM
[8] = second compound 0.316 µM, first compound 0.03 µM
[9] = second compound 0.316 µM, first compound 0.0949 µM
[10] = second compound 0.316 µM, first compound 0.3 µM
[11] = second compound 0.316 µM, first compound 0.949 µM
[12] = second compound 0.316 µM, first compound 3 µM
[13] = second compound 1 µM, first compound 0.00949 µM
[14] = second compound 1 µM, first compound 0.03 µM
[15] = second compound 1 µM, first compound 0.0949 µM
[16] = second compound 1 µM, first compound 0.3 µM
[17] = second compound 1 µM, first compound 0.949 µM
[18] = second compound 1 µM, first compound 3 µM
[19] = second compound 3.16 µM, first compound 0.00949 µM
[20] = second compound 3.16 µM, first compound 0.03 µM
[21] = second compound 3.16 µM, first compound 0.0949 µM
[22] = second compound 3.16 µM, first compound 0.3 µM
[23] = second compound 3.16 µM, first compound 0.949 µM
[24] = second compound 3.16 µM, first compound 3 µM
[25] = second compound 10 µM, first compound 0.00949 µM
[26] = second compound 10 µM, first compound 0.03 µM
[27] = second compound 10 µM, first compound 0.0949 µM
[28] = second compound 10 µM, first compound 0.3 µM
[29] = second compound 10 µM, first compound 0.949 µM
[30] = second compound 10 µM, first compound 3 µM
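Further: spheroids exposed to agents for seven days.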
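Wherever viability, T/C is given: 100% = DMSO vehicle control wells.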

SMILES: Cn1ncnc1C1c2n[nH]c(=O)c3cc(F)cc(c23)NC1c1ccc(F)cc1 (stereo not given) + NC1CC1c1ccc(-c2cccc(O)c2)cc1
- IC50 (second compound 0.1 µM): > 100 nM
- IC50 (second compound 0.316 µM): > 100 nM
- IC50 (second compound 1 µM): > 100 nM
- IC50 (second compound 3.16 µM): > 100 nM
- IC50 (second compound 10 µM): > 100 nM
- viability, T/C (second compound 0.1 µM, first compound 0.000316 µM): 90.1%
- viability, T/C (second compound 0.1 µM, first compound 0.001 µM): 89.6%
- viability, T/C (second compound 0.1 µM, first compound 0.00316 µM): 87.5%
- viability, T/C (second compound 0.1 µM, first compound 0.01 µM): 88.7%
- viability, T/C (second compound 0.1 µM, first compound 0.0316 µM): 96.2%
- viability, T/C (second compound 0.1 µM, first compound 0.1 µM): 81.4%
- viability, T/C (second compound 0.316 µM, first compound 0.000316 µM): 89.6%
- viability, T/C (second compound 0.316 µM, first compound 0.001 µM): 98.1%
- viability, T/C (second compound 0.316 µM, first compound 0.00316 µM): 80.3%
- viability, T/C (second compound 0.316 µM, first compound 0.01 µM): 84.9%
- viability, T/C (second compound 0.316 µM, first compound 0.0316 µM): 94.5%
- viability, T/C (second compound 0.316 µM, first compound 0.1 µM): 74.1%
- viability, T/C (second compound 1 µM, first compound 0.000316 µM): 82.8%
- viability, T/C (second compound 1 µM, first compound 0.001 µM): 88.5%
- viability, T/C (second compound 1 µM, first compound 0.00316 µM): 109%
- viability, T/C (second compound 1 µM, first compound 0.01 µM): 81.6%
- viability, T/C (second compound 1 µM, first compound 0.0316 µM): 87%
- viability, T/C (second compound 1 µM, first compound 0.1 µM): 81.8%
- viability, T/C (second compound 3.16 µM, first compound 0.000316 µM): 94.4%
- viability, T/C (second compound 3.16 µM, first compound 0.001 µM): 90%
- viability, T/C (second compound 3.16 µM, first compound 0.00316 µM): 81.5%
- viability, T/C (second compound 3.16 µM, first compound 0.01 µM): 80.5%
- viability, T/C (second compound 3.16 µM, first compound 0.0316 µM): 77.7%
- viability, T/C (second compound 3.16 µM, first compound 0.1 µM): 91.6%
- viability, T/C (second compound 10 µM, first compound 0.000316 µM): 86.8%
- viability, T/C (second compound 10 µM, first compound 0.001 µM): 83.2%
- viability, T/C (second compound 10 µM, first compound 0.00316 µM): 86.5%
- viability, T/C (second compound 10 µM, first compound 0.01 µM): 87.2%
- viability, T/C (second compound 10 µM, first compound 0.0316 µM): 75.3%
- viability, T/C (second compound 10 µM, first compound 0.1 µM): 88.2%

SMILES: NS(=O)(=O)OCC1CC(n2ccc3c(NC4CCc5ccccc54)ncnc32)CC1O (stereo not given) + NC1CC1c1ccc(-c2cccc(O)c2)cc1
- IC50 (second compound 0.1 µM): 321 nM
- IC50 (second compound 0.316 µM): 280 nM
- IC50 (second compound 1 µM): 334 nM
- IC50 (second compound 3.16 µM): 255 nM
- IC50 (second compound 10 µM): 134 nM
- viability, T/C [1]: 104%
- viability, T/C [2]: 81.6%
- viability, T/C [3]: 66.4%
- viability, T/C [4]: 53.8%
- viability, T/C [5]: 35.4%
- viability, T/C [6]: 15.2%
- viability, T/C [7]: 96.3%
- viability, T/C [8]: 81%
- viability, T/C [9]: 66.1%
- viability, T/C [10]: 53.6%
- viability, T/C [11]: 27%
- viability, T/C [12]: 18.5%
- viability, T/C [13]: 92.5%
- viability, T/C [14]: 81.4%
- viability, T/C [15]: 77.5%
- viability, T/C [16]: 51.7%
- viability, T/C [17]: 29.5%
- viability, T/C [18]: 20.7%
- viability, T/C [19]: 98.9%
- viability, T/C [20]: 75.7%
- viability, T/C [21]: 68.5%
- viability, T/C [22]: 45.9%
- viability, T/C [23]: 32.6%
- viability, T/C [24]: 17.4%
- viability, T/C [25]: 87.8%
- viability, T/C [26]: 74.4%
- viability, T/C [27]: 56.4%
- viability, T/C [28]: 35.2%
- viability, T/C [29]: 20.3%
- viability, T/C [30]: 8.52%

SMILES: O=C(C=Cc1cccc(S(=O)(=O)Nc2ccccc2)c1)NO + NC1CC1c1ccc(-c2cccc(O)c2)cc1
- IC50 (second compound 0.1 µM): 65.8 nM
- IC50 (second compound 0.316 µM): 70.7 nM
- IC50 (second compound 1 µM): 69.2 nM
- IC50 (second compound 3.16 µM): 66.5 nM
- IC50 (second compound 10 µM): 63.6 nM
- viability, T/C [1]: 85.4%
- viability, T/C [2]: 75.1%
- viability, T/C [3]: 36.9%
- viability, T/C [4]: 14.6%
- viability, T/C [5]: 1.81%
- viability, T/C [6]: 0.79%
- viability, T/C [7]: 78.8%
- viability, T/C [8]: 69.1%
- viability, T/C [9]: 43.9%
- viability, T/C [10]: 8.31%
- viability, T/C [11]: 0.59%
- viability, T/C [12]: 0.61%
- viability, T/C [13]: 79.5%
- viability, T/C [14]: 72.9%
- viability, T/C [15]: 40.6%
- viability, T/C [16]: 13.6%
- viability, T/C [17]: 0.92%
- viability, T/C [18]: 0.19%
- viability, T/C [19]: 82.8%
- viability, T/C [20]: 74.1%
- viability, T/C [21]: 37.5%
- viability, T/C [22]: 16.5%
- viability, T/C [23]: 0.75%
- viability, T/C [24]: 1.27%
- viability, T/C [25]: 74%
- viability, T/C [26]: 65.2%
- viability, T/C [27]: 41.4%
- viability, T/C [28]: 17.4%
- viability, T/C [29]: 0.56%
- viability, T/C [30]: 1.22%
